The values that follow come from ChEMBL document CHEMBL1149062, “A Sesquiterpene Quinone and Hydroquinone from the Southern Australian Marine Sponge, Thorecta choanoides” (J Nat Prod, 1994).

This experiment deals with Human immunodeficiency virus. Nature of the experiment: Antiviral activity against HIV assessed as inhibition of viral replication. The class given is functional, organism-based.

Activity calls are given as the source filed them. The calls are words filed in the database; no cut-off is given here.

`COc1cc(O)cc(C/C=C(\C)CC/C=C(\C)CCC=C(C)C)c1O`: the result was inactive.
To `COC1=CC(=O)C=C(C/C=C(\C)CC/C=C(\C)CCC=C(C)C)C1=O` belongs “inactive”.
